Values joined by “and” are separate entries in the source; they are usually repeats but may differ in a detail not shown here. Equal entries are not always repeated. Numbers after ± are expanded uncertainties.
Conditions: Gas, Coaxial cylinder method

CCCCC [pentane]
Conditions | thermal conductivity
478.5 K, 46675 kPa | 0.1028 ± 0.0038 W/m/K
479.9 K, 100 kPa | 0.03642 ± 0.0013 W/m/K
482.02 K, 100 kPa | 0.03645 ± 0.0013 W/m/K
482.02 K, 2180 kPa | 0.03995 ± 0.0014 W/m/K
484.5 K, 7555 kPa | 0.07149 ± 0.0025 W/m/K
484.5 K, 10055 kPa | 0.0768 ± 0.0027 W/m/K
484.5 K, 19975 kPa | 0.08666 ± 0.0031 W/m/K
484.5 K, 25175 kPa | 0.09003 ± 0.0032 W/m/K
484.5 K, 27775 kPa | 0.09214 ± 0.0033 W/m/K
485.84 K, 1820 kPa | 0.03954 ± 0.0014 W/m/K
485.84 K, 1830 kPa | 0.03953 ± 0.0014 W/m/K
485.84 K, 1886 kPa | 0.03962 ± 0.0014 W/m/K
485.84 K, 2000 kPa | 0.04018 ± 0.0014 W/m/K
485.84 K, 2180 kPa | 0.04056 ± 0.0014 W/m/K
485.84 K, 2260 kPa | 0.04079 ± 0.0014 W/m/K
485.84 K, 2280 kPa | 0.04036 ± 0.0014 W/m/K
485.84 K, 2300 kPa | 0.04075 ± 0.0014 W/m/K
485.84 K, 2560 kPa | 0.04155 ± 0.0014 W/m/K
487.28 K, 1820 kPa | 0.03982 ± 0.0014 W/m/K
487.3 K, 100 kPa | 0.03739 ± 0.0013 W/m/K
497.3 K, 988 kPa | 0.03935 ± 0.0014 W/m/K
497.3 K, 2518 kPa | 0.04191 ± 0.0015 W/m/K
497.3 K, 9975 kPa | 0.07419 ± 0.0026 W/m/K
497.3 K, 19975 kPa | 0.08618 ± 0.003 W/m/K
497.3 K, 30375 kPa | 0.09354 ± 0.0034 W/m/K
497.3 K, 40275 kPa | 0.09941 ± 0.0037 W/m/K
497.3 K, 49575 kPa | 0.1037 ± 0.0039 W/m/K
497.65 K, 100 kPa | 0.03875 ± 0.0014 W/m/K
500.96 K, 100 kPa | 0.03915 ± 0.0014 W/m/K
523 K, 988 kPa | 0.0425 ± 0.0015 W/m/K
523 K, 2508 kPa | 0.04516 ± 0.0016 W/m/K
523 K, 17975 kPa | 0.0821 ± 0.0029 W/m/K
523 K, 20175 kPa | 0.08444 ± 0.003 W/m/K
523 K, 25475 kPa | 0.0885 ± 0.0032 W/m/K
523 K, 30475 kPa | 0.09129 ± 0.0033 W/m/K
523 K, 40175 kPa | 0.09665 ± 0.0036 W/m/K
523 K, 43475 kPa | 0.09824 ± 0.0036 W/m/K
523 K, 49975 kPa | 0.1014 ± 0.0038 W/m/K
526.4 K, 2200 kPa | 0.04473 ± 0.0016 W/m/K
526.4 K, 2300 kPa | 0.0457 ± 0.0016 W/m/K
526.4 K, 2400 kPa | 0.0457 ± 0.0016 W/m/K
526.4 K, 2500 kPa | 0.0457 ± 0.0016 W/m/K
526.4 K, 2600 kPa | 0.04565 ± 0.0016 W/m/K
526.4 K, 2700 kPa | 0.0456 ± 0.0016 W/m/K
526.4 K, 2800 kPa | 0.04599 ± 0.0016 W/m/K
526.4 K, 2900 kPa | 0.0465 ± 0.0016 W/m/K
526.4 K, 3000 kPa | 0.04712 ± 0.0016 W/m/K
526.4 K, 3300 kPa | 0.04771 ± 0.0017 W/m/K
526.4 K, 3600 kPa | 0.04853 ± 0.0017 W/m/K
526.4 K, 3700 kPa | 0.04799 ± 0.0017 W/m/K
526.4 K, 3800 kPa | 0.04888 ± 0.0017 W/m/K
526.54 K, 2200 kPa | 0.04492 ± 0.0016 W/m/K
526.57 K, 100 kPa | 0.04253 ± 0.0015 W/m/K
576.1 K, 100 kPa | 0.04957 ± 0.0017 W/m/K
576.1 K, 988 kPa | 0.05094 ± 0.0018 W/m/K
576.1 K, 2417 kPa | 0.05148 ± 0.0018 W/m/K
576.1 K, 2508 kPa | 0.05179 ± 0.0018 W/m/K
576.1 K, 4048 kPa | 0.05495 ± 0.0019 W/m/K
576.1 K, 20475 kPa | 0.08464 ± 0.003 W/m/K
576.1 K, 22475 kPa | 0.08627 ± 0.0031 W/m/K
576.1 K, 30275 kPa | 0.09057 ± 0.0033 W/m/K
576.1 K, 30575 kPa | 0.09 ± 0.0032 W/m/K
576.1 K, 40175 kPa | 0.09709 ± 0.0036 W/m/K
576.1 K, 40975 kPa | 0.09601 ± 0.0035 W/m/K
576.1 K, 51275 kPa | 0.1023 ± 0.0039 W/m/K
618.2 K, 7584 kPa | 0.06457 ± 0.0022 W/m/K
618.2 K, 9985 kPa | 0.06826 ± 0.0024 W/m/K
618.2 K, 11475 kPa | 0.07159 ± 0.0025 W/m/K
618.2 K, 12945 kPa | 0.07331 ± 0.0026 W/m/K
618.2 K, 12985 kPa | 0.07397 ± 0.0026 W/m/K
618.2 K, 14975 kPa | 0.07629 ± 0.0027 W/m/K
618.2 K, 18875 kPa | 0.08227 ± 0.0029 W/m/K and 0.08277 ± 0.0029 W/m/K
621.2 K, 100 kPa | 0.05581 ± 0.0019 W/m/K
621.2 K, 10375 kPa | 0.06836 ± 0.0024 W/m/K
621.2 K, 15375 kPa | 0.07737 ± 0.0027 W/m/K
621.2 K, 20275 kPa | 0.08383 ± 0.003 W/m/K
621.2 K, 22975 kPa | 0.08581 ± 0.0031 W/m/K
621.2 K, 30175 kPa | 0.09232 ± 0.0033 W/m/K
621.2 K, 39275 kPa | 0.09614 ± 0.0035 W/m/K
621.2 K, 40375 kPa | 0.09714 ± 0.0036 W/m/K
621.2 K, 49975 kPa | 0.1015 ± 0.0038 W/m/K
621.2 K, 53675 kPa | 0.1031 ± 0.0039 W/m/K
621.2 K, 53975 kPa | 0.103 ± 0.0039 W/m/K

From the NIST ThermoML archive (doi:10.1016/j.fluid.2017.12.026)
